{"source": "patent US20230404985A1", "about": "“METHODS OF TREATING TUMORS AND CANCERS HAVING DYSREGULATED WNT SIGNALING PATHWAYS” (ICAHN SCHOOL OF MEDICINE AT MOUNT SINAI, priority 2020, published 2023)", "key": {"[1]": {"system": "MYC-CTNNB1 tumor organoids", "assay": "Drug toxicity (viability) assay in murine HCC tumor organoids", "assay_type": "cell-based, mouse", "conditions": "screen in four tumor organoid models; 5 μM, viability after 3 days", "method": "Liver tumors were minced and digested in sterile digestion media (PBS, 0.125 mg/mL collagenase from Clostridium histolyticum, 0.125 mg/mL dispase II, and 0.1 mg/mL DNaseI) for two hours at 37° C. Tumor dissociate was strained through a 70 μm strainer and washed with basal media (Advanced DMEM/F-12, 1% glutamine, 1% penicillin/streptomycin, 10 mM HEPES). Cells were counted, washed, resuspended at 50,000 cells per 50 μL Matrigel (Corning), and plated in 24 well plates. […]\nFor assays in organoid lines, 96 well plates were first coated with a 50:50 solution of basal media:Matrigel (35 μL/well), which polymerized for 15 minutes at 37° C. […] Viability was measured three days post drug administration with either luminescence from CellTiter-Glo or absorbance at 560 and 590 nm from resazurin. Viability data was analyzed by normalizing individual drug-treated well values to DMSO-treated wells. […]"}, "WNT pathway reporter": {"system": "WNT pathway reporter", "assay": "GFP-based WNT reporter in stable MYC-CTNNB1 organoids", "assay_type": "cell-based, mouse", "from_the_text": "The library was further refined by performing dose-response curves on tumor organoids and primary human hepatocytes (FIG. 1C). In addition, stable MYC-CTNNB1 organoids expressing a GFP-based WNT reporter were created to assess direct transcriptional inhibition of the pathway. […] WNTinib was exemplary for its therapeutic index, as defined by its preferential activity in the CTNNB1-driven model as compared to hepatocytes."}, "[2]": {"system": "MYC-CTNNB1 tumor organoid allografts", "assay": "MYC-CTNNB1 tumor organoid allografts", "assay_type": "in vivo, C57BL/6J mice"}, "[3]": {"assay": "14-day oral gavage tissue toxicity study", "assay_type": "in vivo"}, "[4]": {"conditions": "WNTinib 20 mg/kg daily, anti-PD-1 200 μg i.p., start ~350 mm^3"}, "[5]": {"conditions": "tumors of advanced-stage allograft study"}}}
{"smiles": "CNC(=O)c1cc(Oc2ccc(NC(=O)Nc3ccc(C(F)(F)C(F)(F)F)cc3)c(F)c2)ccn1", "note": "[WNTinib, 4-(3-fluoro-4-(3-(4-(perfluoroethyl)phenyl)ureido)phenoxy)-N-methylpicolinamide]", "values": [{"measurement": "activity in tumor organoid screen", "setting": "[1]", "result": "potent and selective activity"}, {"measurement": "WNT-driven GFP expression (WNT pathway reporter)", "setting": "WNT pathway reporter", "result": "only compound to downregulate WNT-driven GFP expression"}, {"measurement": "survival in allograft combination study", "setting": "[2]; [4]", "result": "prolong survival"}, {"measurement": "tumor regression in allograft combination study", "setting": "[2]; [4]", "result": "able to induce tumor regression"}, {"measurement": "efficacy in allograft combination study", "setting": "[2]; WNTinib 20 mg/kg, sorafenib 30 mg/kg daily, anti-PD-1 200 μg i.p., start ~350 mm^3", "result": "superior efficacy"}, {"measurement": "tumor regression", "setting": "[2]; treatment started at 100 mm^3, 30 mg/kg daily oral gavage", "result": "induced significant tumor regression in the majority of animals"}, {"measurement": "efficacy in advanced-stage setting versus sorafenib", "setting": "[2]; treatment started at 300-400 mm^3, WNTinib 20 mg/kg, sorafenib 30 mg/kg", "result": "superior to the standard of care clinical compound (sorafenib)"}, {"measurement": "EZH2 T367 phosphorylation in tumors", "setting": "[2]; [5]", "result": "inhibition of EZH2 T367 phosphorylation"}, {"measurement": "WNT-target genes in tumors (qPCR)", "setting": "[2]; [5]", "result": "in vivo suppression of WNT-target genes"}, {"measurement": "pathological changes in brain, heart, esophagus, large intestine", "setting": "[3]; 60 mg/kg and 120 mg/kg oral gavage, 14 days", "result": "do not reveal pathological changes"}, {"measurement": "toxicity in mouse intestine", "setting": "[3]; 14 days daily treatment, up to 4-fold the therapeutic dose", "result": "no toxicity was observed in mouse intestine"}]}
